“And” between values parts separate entries of the source, which are not always exact repeats. Equal values may be shown once.
Legend:
Format in all cases: in vivo
[1] = tested on: transgenic corn hybrid BAa-4; test: Greenhouse spray test of corn lines with imidazolinone herbicides, injury score; conditions: BAa-4; for Score, individual plants (0 dead plants, 5 healthy plants with no injury): 16 days after treatment; for M.S.: score 0 (dead) to 5 (healthy), 16 days
Description: (§1) Grow one corn plant per pot (5×5 inch) in a 3×5 flat till three- to four-leaf stage (about 9 to 13 days depending on the weather). On the day of spraying, water the plants well and let excess water drip out. Spray plants on a belt-sprayer with the imidazolinone herbicides at desired rates. […] When temperature was too high, base water plants to prevent wilting. Closely observe the plants for the next two to three weeks. Symptoms of herbicide injury will be visible three days after spraying and susceptible plants will die within two to three weeks depending on temperature.
(§2) The plants were rated on a scale of 0-5 with 0 for dead plants and 5 for healthy plants with no or minimum injury.
(§3) Two transgenic hybrids BAa-4 and MAa-7 lines (see FIG. 5 for their pedigree), a non-transformed control line B×A (B73×A188), 8962IT (heterozygous XI12 imi-tolerant corn line), 8962 (wild type control) and 3395IR (homozygous XA17 imi-resistant corn line) (8962IT and 8962 were from ICI, now Garst Seed Company, Slater, Iowa 50244, and 3395IR was from Pioneer Hi-Bred International Inc, Iowa 50306-3453). Plants were sprayed with 4, 8, 16 or 20×PURSUIT® imazethapyr, ARSENAL® imazapyr, CADRE® imazameth or RAPTOR® imazamox. Plants were scored 0 to 5 (with 0 being dead plants, 5 being healthy plants with no injury) individually 16 days after herbicide treatments. […] For the four tested imidazolinones, transgenic plants could tolerate higher rates of ARSENAL® imazapyr, PURSUIT® imazethapyr, than CADRE® imazameth and RAPTOR® imazamox.

[2] = tested on: non-transformed control corn line BxA (B73×A188); test: as above; conditions: for Score, individual plants (0 dead plants, 5 healthy plants with no injury): 16 days after treatment; for M.S.: score 0 (dead) to 5 (healthy), 16 days
Description: as §1, §2, §3

[3] = tested on: 3395IR (homozygous XA17 imi-resistant corn line); test: as above; conditions: for Score, individual plants (0 dead plants, 5 healthy plants with no injury): 16 days after treatment; for M.S.: score 0 (dead) to 5 (healthy), 16 days
Description: as §1, §2, §3

[4] = tested on: transgenic corn hybrid MAa-7; test: as above; conditions: MAa-7; for Score, individual plants (0 dead plants, 5 healthy plants with no injury): 16 days after treatment; for M.S.: score 0 (dead) to 5 (healthy), 16 days
Description: as §1, §2, §3

[5] = tested on: 8692IT (heterozygous XI12 imi-tolerant corn line); test: as above; conditions: for Score, individual plants (0 dead plants, 5 healthy plants with no injury): 16 days after treatment; for M.S.: score 0 (dead) to 5 (healthy), 16 days
transgenic rice Line 26 = test: Response of rice plants to various herbicides, seed set in greenhouse; conditions: post-emergence, 1× g ai/ha: PURSUIT 62.5, CADRE 32, ARSENAL 24, RAPTOR 32, SCEPTER 125, ACCENT 35, CLASSIC 5, AC322,140 20, LONDAX 68
Description: (§4) A total of 9 herbicides, 5 imidazolinones, two rice herbicides and ACCENT® (nicosulfuron) and CLASSIC® (clorimuron-ethyl) were applied in this study. Materials and methods were basically the same as described above, except that instead of 6″ pots, flats with 18 (3″×3″ per cell) cells were used, and 10-12 seeds were planted to one 3″×3″ cell. Ten plants were maintained in one cell in the post-emergence application. Each herbicide was sprayed at 4 different rates, 1, 2, 4, and 6×, as either pre or post-emergence applications with three replications per treatment. The name and amount of herbicide applied in this experiment and information relevant to their commercial applications are listed in Table 3. For simplicity and convenience, the lowest concentration used is referred as 1× rate, 2, 4 and 6× rates can be calculated as multiples of 1×.
(§5) To monitor plant response to various herbicides, data on fresh weight was collected. For pre-emergence applications, all plants from one cell were harvested 32 days after spraying (36-day old plants) and weighed. Twenty-nine days after herbicide application, 5 plants (44-day old plants) from each cell in the post-emergence application, were cut and weighed individually. Mean fresh weight for each treatment was calculated over three replications. The remaining 5 plants were grown in the greenhouse to maturity at which time, panicles of 3 plants were collected, and number of filled seeds and number of total kernels were counted to determine percentage of seed set.

transgenic rice Line 29 = test: as above; conditions: post-emergence, 1× g ai/ha: PURSUIT 62.5, CADRE 32, ARSENAL 24, RAPTOR 32, SCEPTER 125, ACCENT 35, CLASSIC 5, AC322,140 20, LONDAX 68
Description: as §4, §5

[6] = tested on: untransformed Nt rice plants; test: as above; conditions: post-emergence, 1× g ai/ha: PURSUIT 62.5, CADRE 32, ARSENAL 24, RAPTOR 32, SCEPTER 125, ACCENT 35, CLASSIC 5, AC322,140 20, LONDAX 68
Description: as §4, §5

[7] = tested on: 8692 (wild type control corn line); test: Greenhouse spray test of corn lines with imidazolinone herbicides, injury score; conditions: for Score, individual plants (0 dead plants, 5 healthy plants with no injury): 16 days after treatment; for M.S.: score 0 (dead) to 5 (healthy), 16 days
[8] = 4×: PURSUIT 250, RAPTOR 160, ARSENAL 96, CADRE 400 g/ha
[9] = 8×: PURSUIT 500, RAPTOR 320, ARSENAL 192, CADRE 800 g/ha
[10] = 16×: RAPTOR 640 g/ha, ARSENAL 384 g/ha, CADRE 1.6 kg/ha

In the case of Cc1cnc(C2=NC(=O)C(C)(C(C)C)N2)c(C(=O)O)c1 (stereo not drawn) [CADRE ®, imazameth], the “Score, individual plants (0 dead plants, 5 healthy plants with no injury)” value [1, 8] is reported as 5, the M.S. [1, 8] is reported as 5 and the “Score, individual plants (0 dead plants, 5 healthy plants with no injury)” value [1, 9] is reported as 3 (2×) and 2 (3×). The M.S. [1, 9] was 2.4, the “Score, individual plants (0 dead plants, 5 healthy plants with no injury)” value [1, 10] was 3 and 1 and 0 (3×) and the M.S. [1, 10] was 0.8. The “Score, individual plants (0 dead plants, 5 healthy plants with no injury)” value [2, 8] was 0, the M.S. [2, 8] was 0 and the “Score, individual plants (0 dead plants, 5 healthy plants with no injury)” value [2, 9] was 0. The M.S. [2, 9] was 0, the “Score, individual plants (0 dead plants, 5 healthy plants with no injury)” value [2, 10] was 0 and the M.S. [2, 10] was 0. For the same compound, the “Score, individual plants (0 dead plants, 5 healthy plants with no injury)” value [3, 8] was 5, the M.S. [3, 8] was 5 and the “Score, individual plants (0 dead plants, 5 healthy plants with no injury)” value [3, 9] was 5. For the same compound, the M.S. [3, 9] was 5, the “Score, individual plants (0 dead plants, 5 healthy plants with no injury)” value [3, 10] was 4 (2×) and 5 (3×) and the M.S. [3, 10] was 4.6. For the same compound, the “Score, individual plants (0 dead plants, 5 healthy plants with no injury)” value [4, 8] was 5 (4×) and 4, the M.S. [4, 8] was 4.8 and the “Score, individual plants (0 dead plants, 5 healthy plants with no injury)” value [4, 9] was 2 (2×) and 4 (2×) and 3. For the same compound, the M.S. [4, 9] was 3, the “Score, individual plants (0 dead plants, 5 healthy plants with no injury)” value [4, 10] was 0 (2×) and 1 (3×) and the M.S. [4, 10] was 0.6. For the same compound, the “Score, individual plants (0 dead plants, 5 healthy plants with no injury)” value [5, 8] was 4 (3×) and 5 (2×), the M.S. [5, 8] was 4.4 and the “Score, individual plants (0 dead plants, 5 healthy plants with no injury)” value [5, 9] was 3 (3×) and 2 (2×). For the same compound, the M.S. [5, 9] was 2.6, the “Score, individual plants (0 dead plants, 5 healthy plants with no injury)” value [5, 10] was 1 (2×) and 2 (3×) and the M.S. [5, 10] was 1.6. The “% seed-set” value (transgenic rice Line 26; 1× rate) was 84%, the “No. filled seeds/3 panicles” value (transgenic rice Line 26; 1× rate) was 133 and the “Total No. of kernels/3 panicles” value (transgenic rice Line 26; 1× rate) was 159. For the same compound, the “% seed-set” value (transgenic rice Line 26; 2× rate) was 95%, the “No. filled seeds/3 panicles” value (transgenic rice Line 26; 2× rate) was 153 and the “Total No. of kernels/3 panicles” value (transgenic rice Line 26; 2× rate) was 161. The “% seed-set” value (transgenic rice Line 26; 4× rate) was 87%, the “No. filled seeds/3 panicles” value (transgenic rice Line 26; 4× rate) was 124 and the “Total No. of kernels/3 panicles” value (transgenic rice Line 26; 4× rate) was 143. The “% seed-set” value (transgenic rice Line 26; 6× rate) was 77%, the “No. filled seeds/3 panicles” value (transgenic rice Line 26; 6× rate) was 131 and the “Total No. of kernels/3 panicles” value (transgenic rice Line 26; 6× rate) was 169. The “% seed-set” value (transgenic rice Line 29; 1× rate) was 88%, the “No. filled seeds/3 panicles” value (transgenic rice Line 29; 1× rate) was 154 and the “Total No. of kernels/3 panicles” value (transgenic rice Line 29; 1× rate) was 175. For the same compound, the “% seed-set” value (transgenic rice Line 29; 2× rate) was 86%, the “No. filled seeds/3 panicles” value (transgenic rice Line 29; 2× rate) was 143 and the “Total No. of kernels/3 panicles” value (transgenic rice Line 29; 2× rate) was 166. For the same compound, the “% seed-set” value (transgenic rice Line 29; 4× rate) was 82%, the “No. filled seeds/3 panicles” value (transgenic rice Line 29; 4× rate) was 126 and the “Total No. of kernels/3 panicles” value (transgenic rice Line 29; 4× rate) was 154. The “% seed-set” value (transgenic rice Line 29; 6× rate) was 80%, the “No. filled seeds/3 panicles” value (transgenic rice Line 29; 6× rate) was 127 and the “Total No. of kernels/3 panicles” value (transgenic rice Line 29; 6× rate) was 159. The “% seed-set” value ([6]; 1× rate) was 98%, the “No. filled seeds/3 panicles” value ([6]; 1× rate) was 92 and the “Total No. of kernels/3 panicles” value ([6]; 1× rate) was 94. For the same compound, the “% seed-set” value ([6]; 2× rate) was 83%, the “No. filled seeds/3 panicles” value ([6]; 2× rate) was 76 and the “Total No. of kernels/3 panicles” value ([6]; 2× rate) was 82. The “% seed-set” value ([6]; 4× rate) was 0%, the “No. filled seeds/3 panicles” value ([6]; 4× rate) was 0 and the “Total No. of kernels/3 panicles” value ([6]; 4× rate) was 0. For the same compound, the “% seed-set” value ([6]; 6× rate) was 0%, the “No. filled seeds/3 panicles” value ([6]; 6× rate) was 0 and the “Total No. of kernels/3 panicles” value ([6]; 6× rate) was 0. The “Score, individual plants (0 dead plants, 5 healthy plants with no injury)” value [7, 8] was 0, the M.S. [7, 8] was 0 and the “Score, individual plants (0 dead plants, 5 healthy plants with no injury)” value [7, 9] was 0. The M.S. [7, 9] was 0, the “Score, individual plants (0 dead plants, 5 healthy plants with no injury)” value [7, 10] was 0 and the M.S. [7, 10] was 0.

Reference: US6653529B2, “Use of the maize X112 mutant ahas 2 gene and imidazolinone herbicides for selection of transgenic monocots, maize, rice and wheat plants resistant to the imidazolinone herbicides” (BASF Aktiengesellschaft, priority 2000, dated 2003)
